IC50 and inhibition data for 27 molecules are collected here from patent US7151105B2, “Inhibitors of Hepatitis C virus RNA-dependent RNA polymerase, and compositions and treatments using the same” (Agouron Pharmaceuticals, Inc., priority 2004, dated 2006).

Structures are written as SMILES.

T1 sequence (P26663 2420-3010): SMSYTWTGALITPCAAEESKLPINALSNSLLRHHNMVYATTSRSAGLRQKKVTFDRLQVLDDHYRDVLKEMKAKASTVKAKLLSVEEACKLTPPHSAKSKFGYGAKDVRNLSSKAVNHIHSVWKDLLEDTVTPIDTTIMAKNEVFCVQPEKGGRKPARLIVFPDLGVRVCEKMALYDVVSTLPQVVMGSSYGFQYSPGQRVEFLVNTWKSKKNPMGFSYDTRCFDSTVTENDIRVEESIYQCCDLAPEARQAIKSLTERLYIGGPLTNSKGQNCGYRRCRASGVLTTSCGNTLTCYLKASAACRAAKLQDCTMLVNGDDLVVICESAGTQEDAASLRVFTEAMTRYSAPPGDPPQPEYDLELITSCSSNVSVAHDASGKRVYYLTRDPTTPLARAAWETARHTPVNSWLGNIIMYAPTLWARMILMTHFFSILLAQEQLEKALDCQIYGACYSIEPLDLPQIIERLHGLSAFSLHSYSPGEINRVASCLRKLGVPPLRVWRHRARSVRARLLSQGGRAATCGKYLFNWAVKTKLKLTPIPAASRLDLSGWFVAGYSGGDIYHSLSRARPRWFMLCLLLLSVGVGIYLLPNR

One assay concerns the target T1, Recombinant HCV polymerase (Hepatitis C virus genotype 1b, UniProt P26663).
T1 construct: Recombinant HCV polymerase was tested for its ability to perform primer/template-directed transcription
Briefly: biochemical. To be noted: inhibition of polymerase-directed transcription; 30 min at 30° C; 30 nM enzyme; cpm data in triplicate. In short, it runs like this:
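Primer/template-directed RNA synthesis by 2.5 pmol HCV polymerase on poly(rC)300/biotin-dG12 with 1 μM GTP plus α-32P-GTP, in pH 7.2 Tris buffer with 10 mM MgCl2, for 30 min at 30 °C. Products were filter-captured and counted, with 1% DMSO final. IC50 was fitted from triplicate cpm; percent inhibition was reported where IC50 was impractical.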
As a reminder, the IC50 is the concentration that gives 50% inhibition. Take `CCc1ccc(OC)c(CCC2(C3CCCC3)CC(O)=C(Cc3nc4nc(C)cc(C)n4n3)C(=O)O2)n1` (stereo not drawn) [A(6), 6-Cyclopentyl-3-[(5,7-dimethyl[1,2,4]triazolo[1,5-a]pyrimidin-2-yl)methyl]6-[2-(6-ethyl-3-methoxypyridin-2-yl)ethyl]4-hydroxy-5,6-dihydro-2H-pyran-2-one]: the IC50 turned out to be 39 nM.
Still for that read-out and setting: with `CCc1cc(CCC2(C3CCCC3)CC(O)=C(Cc3nc4nc(C)cc(C)n4n3)C(=O)O2)c(OC)cn1` (single isomer, unassigned) [A(38), 6-Cyclopentyl-3-[(5,7-dimethyl[1,2,4]triazolo[1,5-a]pyrimidin-2-yl)methyl]-6-[2-(2-ethyl-5-methoxypyridin-4-yl)ethyl]-4-hydroxy-5,6-dihydro-2H-pyran-2-one] the figure was 3 nM; with `CCc1cc(CCC2(C3CCCC3)CC(=O)CC(=O)O2)ccc1NS(C)(=O)=O` (stereo not drawn) [A(105), N-{4-[2-(2-cyclopentyl-4,6-dioxotetrahydro-2H-pyran-2-yl)ethyl]-2-ethylphenyl}methanesulfonamide], 250 nM; with `CCc1cc(CCC2(C3CCCC3)CC(=O)CC(=O)O2)ccc1CO` (stereo not drawn) [B(34), 6-Cyclopentyl-6-{2-[3-ethyl-4-(hydroxymethyl)phenyl]ethyl}dihydro-2H-pyran-2,4(3H)-dione], 1300 nM.
The same measure, in the same setting: with `O=C1CC(=O)OC(CCc2ccc(S(=O)(=O)C(F)(F)F)cc2)(C2CCCC2)C1` (stereo not drawn) [A(66), 6-Cyclopentyl-6-(2-{4[(trifluoromethyl)sulfonyl]phenyl}ethyl)dihydro-2H-pyran-2,4(3H)-dione] the figure was 31000 nM.
Take `CCc1nn2c(=O)cc(CC3=C(O)CC(CCc4ccc(C(C)(C)C#N)c(F)c4)(C4CCCC4)OC3=O)nc2s1` (stereo not drawn) [B(20), 2-[4-(2-{2-Cyclopentyl-5-[(2-ethyl-5-oxo-5H-[1,3,4]thiadiazolo[3,2-a]pyrimidin-7-yl)methyl]-4-hydroxy-6-oxo-3,6-dihydro-2H-pyran-2-yl}ethyl)-2-fluorophenyl]-2-methylpropanenitrile]: the IC50 came out at 5 nM.
On to `Cc1nc(CC2=C(O)CC(CCc3ccc(C(C)(C)C#N)c(Cl)c3)(C3CCCC3)OC2=O)n(C)n1` (stereo not drawn) [B(22), 2-[2-Chloro-4-(2-{2-cyclopentyl-5-[(1,3-dimethyl-1H-1,2,4-triazol-5-yl)methyl]-4-hydroxy-6-oxo-3,6-dihydro-2H-pyran-2-yl}ethyl)phenyl]-2-methylpropanenitrile], for which the IC50 came to 42 nM.
In the case of `Cc1cc(C)n2nc(OC3C(=O)CC(CCc4ccc(C(C)(C)C#N)c(Cl)c4)(C4CCCC4)OC3=O)nc2n1` (stereo not drawn) [B(27), 2-[2-Chloro-4-(2-{2-cyclopentyl-5-[(5,7-dimethyl[1,2,4]triazolo[1,5-a]pyrimidin-2-yl)oxy]-4,6-dioxotetrahydro-2H-pyran-2-yl}ethyl)phenyl]-2-methylpropanenitrile], the IC50 amounted to 10000 nM.
The same measure, in the same setting: with `CCc1cc(CCC2(C3CCCC3)CC(O)=C(Cc3nc4ncccn4n3)C(=O)O2)ccc1-c1ncco1` (stereo not drawn) [A(136), 6-Cyclopentyl-6-{2-[3-ethyl-4-(1,3-oxazol-2-yl)phenyl]ethyl}-4-hydroxy-3-([1,2,4]triazolo[1,5-a]pyrimidin-2-ylmethyl)-5,6-dihydro-2H-pyran-2-one] the figure was 3 nM; with `C[C@@H](NS(=O)(=O)CC(F)(F)F)c1ccc(CCC2(C3CCCC3)CC(=O)CC(=O)O2)cc1` (stereo partly drawn) [A(88), N-((1R)-1-{4-[2-(2-cyclopentyl-4,6-dioxotetrahydro-2H-pyran-2-yl)ethyl]phenyl}ethyl)-2,2,2-trifluoroethanesulfonamide], 27000 nM; with `CCc1cc(CCC2(C3CCCC3)CC(O)=C(Cc3nc4nc(C)cc(C)n4n3)C(=O)O2)ccc1NS(=O)(=O)CC` (stereo not drawn) [A(108), N-[4-(2-{2-cyclopentyl-5-[(5,7-dimethyl[1,2,4]triazolo[1,5-a]pyrimidin-2-yl)methyl]-4-hydroxy-6-oxo-3,6-dihydro-2H-pyran-2-yl}ethyl)-2-ethylphenyl]ethanesulfonamide], 6 nM.
Turning to `CCn1cc(CCC2(C3CCCC3)CC(O)=C(Cc3nc4nc(C)cc(C)n4n3)C(=O)O2)cn1` (stereo not drawn) [A(61), 6-Cyclopentyl-3[(5,7-dimethyl[1,2,4]triazolo[1,5-a]pyrimidin-2-yl)methyl]-6-[2-(1-ethyl-1H-pyrazol-4-yl)ethyl]-4-hydroxy-5,6-dihydro-2H-pyran-2-one], the IC50 is 140 nM.
Take `CCc1cc(CCC2(C3CCCC3)CC(O)=C(Cc3nc4nc(C)cc(C)n4n3)C(=O)O2)ccc1CO` (single isomer, unassigned; enantiomer 2) [A(115), Enantiomer 2 6-cyclopentyl-3-[(5,7-dimethyl[1,2,4]triazolo[1,5-a]pyrimidin-2-yl)methyl]-6-{2-[3-ethyl-4-(hydroxymethyl)phenyl]ethyl}-4-hydroxy-5,6-dihydro-2H-pyran-2-one]: the 50% inhibitory concentration (IC50) stood at 6 nM.
With `O=C1CC(=O)OC(CCc2ccc(C(=O)O)c(Cl)c2)(C2CCCC2)C1` (stereo not drawn) [B(10)], the concentration for half-maximal inhibition (IC50) is 30000 nM.
Still for that read-out and setting: with `CCOc1cc(O)c(CC)cc1CCC1(C2CCCC2)CC(O)=C(Cc2nc3ncc(C)cn3n2)C(=O)O1` (single isomer, unassigned) [A(58), 6-Cyclopentyl-6-[2-(2-ethoxy-5-ethyl-4-hydroxyphenyl)ethyl]-4-hydroxy-3-[(6-methyl[1,2,4]triazolo[1,5-a]pyrimidin-2-yl)methyl]-5,6-dihydro-2H-pyran-2-one] the figure was 1 nM; with `CCc1cc(CCC2(C3CCCC3)CC(O)=C(Cc3nc4nc(C)cc(C)n4n3)C(=O)O2)c(OCC(C)C)cc1O` (stereo not drawn) [A(59)], 3 nM.
With `CCc1cc(CCC2(C3CCCC3)CC(O)=C(Cc3nc4ncc(C)cn4n3)C(=O)O2)ccc1NS(C)(=O)=O` (stereo not drawn) [A(106), N-[4-(2-{2-cyclopentyl-4-hydroxy-5-[(6-methyl[1,2,4]triazolo[1,5-a]pyrimidin-2-yl)methyl]-6-oxo-3,6-dihydro-2H-pyran-2-yl}ethyl)-2-ethylphenyl]methanesulfonamide], the IC50 is 4 nM.
In the case of `CCc1cc(CCC2(C3CCCC3)CC(O)=C(Cc3nc4nc(C)cc(C)n4n3)C(=O)O2)ccc1CC#N` (stereo not drawn) [A(101), [4-(2-{2-Cyclopentyl-5-[(5,7-dimethyl[1,2,4]triazolo[1,5-a]pyrimidin-2-yl)methyl]-4-hydroxy-6-oxo-3,6-dihydro-2H-pyran-2-yl}ethyl)-2-ethylphenyl]acetonitrile], the half-maximal inhibitory concentration (IC50) is 8 nM.
Same read-out and setting: in the case of `CCc1cc(CCC2(C3CCCC3)CC(O)=C(Cc3nc4nc(C)cc(C)n4n3)C(=O)O2)ccn1` (single isomer, unassigned) [A(44), 6-Cyclopentyl-3-[(5,7-dimethyl[1,2,4]triazolo[1,5-a]pyrimidin-2-yl)methyl]-6-[2-(2-ethylpyridin-4-yl)ethyl]-4-hydroxy-5,6-dihydro-2H-pyran-2-one] it was 7 nM; in that of `CCC(C#N)(CC)c1ccc(CCC2(C3CCCC3)CC(O)=C(Cc3nc4nc(C)cc(C)n4n3)C(=O)O2)cc1C(F)(F)F` (single isomer, unassigned) [A(154), 2-[4-(2-{2-Cyclopentyl-5-[(5,7-dimethyl[1,2,4]triazolo[1,5-a]pyrimidin-2-yl)methyl]-4-hydroxy-6-oxo-3,6-dihydro-2H-pyran-2-yl}ethyl)-2-(trifluoromethyl)phenyl]-2-ethylbutanenitrile], 11 nM; in that of `Cc1nn(C)c(C)c1CC1=C(O)CC(CCc2ccc(C(C)(C)C#N)c(Cl)c2)(C2CCCC2)OC1=O` (stereo not drawn) [B(25), 2-[2-Chloro-4-(2-{2-cyclopentyl-4-hydroxy-6-oxo-5-[(1,3,5-trimethyl-1H-pyrazol-4-yl)methyl]-3,6-dihydro-2H-pyran-2-yl}ethyl)phenyl]-2-methylpropanenitrile], 33 nM.
Still for that read-out and setting: with `CCc1cc(CCC2(C3CCCC3)CC(O)=C(Cc3nc4nc(C)cc(C)n4n3)C(=O)O2)ccc1OCCNC(=O)OC(C)(C)C` (stereo not drawn) [A(70), tert-Butyl 2-[4-(2-{2-cyclopentyl-5-[(5,7-dimethyl[1,2,4]triazolo[1,5-a]pyrimidin-2-yl)methyl]-4-hydroxy-6-oxo-3,6-dihydro-2H-pyran-2-yl}ethyl)-2-ethylphenoxy]ethylcarbamate] the figure was 14 nM; with `Cc1cc(C)n2nc(CC3=C(O)CC(CCc4ccnc(C(C)C)c4)(C4CCCC4)OC3=O)nc2n1` (stereo not drawn) [A(33), 6Cyclopentyl-3-[(5,7-dimethyl[1,2,4]triazolo[1,5-a]pyrimidin-2-yl)methyl]-4-hydroxy-6-[2-(2-isopropylpyridin-4-yl)ethyl]-5,6-dihydro-2H-pyran-2-one], 7 nM; with `CCOc1cc(O)c(CC)cc1CCC1(C2CCCC2)CC(O)=C(Cc2nc3nc(C)cc(C)n3n2)C(=O)O1` (single isomer, unassigned) [A(31), 6-Cyclopentyl-3-[(5,7-dimethyl[1,2,4]triazolo[1,5-a]pyrimidin-2-yl)methyl]-6-[2-(2-ethoxy-5-ethyl-4-hydroxyphenyl)ethyl]-4-hydroxy-5,6-dihydro-2H-pyran-2-one], 6 nM.
Consider `COc1cnc(C)cc1CCC1(C2CCCC2)CC(O)=C(Cc2nc3nc(C)cc(C)n3n2)C(=O)O1` (stereo not drawn) [A(8), 6-Cyclopentyl-3-[(5,7-dimethyl[1,2,4]triazolo[1,5-a]pyrimidin-2-yl)methyl]-4-hydroxy-6-[2-(5methoxy-2-methylpyridin-4-yl)ethyl]-5,6-dihydro-2H-pyran-2-one], for which the IC50 is 99 nM.
As to `CCS(=O)(=O)N[C@H](C)c1ccc(CCC2(C3CCCC3)CC(O)=C(Cc3nc4nc(C)cc(C)n4n3)C(=O)O2)cc1` (stereo partly drawn) [A(81), N-{(1R)-1-[4-(2-{2-cyclopentyl-5-[(5,7-dimethyl[1,2,4]triazolo[1.5-a]pyrimidin-2-yl)methyl]-4-hydroxy-6-oxo-3,6-dihydro-2H-pyran-2-yl}ethyl)phenyl]ethyl}ethanesulfonamide], the 50% inhibitory concentration (IC50) is 120 nM.

Still in this assay, the particulars now being: read-out: % inh @ 50 uM.
With `CCc1cc(CCC2(C3CCCC3)CC(=O)CC(=O)O2)c(OC)cc1OCCN(C)C(=O)OC(C)(C)C` (stereo not drawn) [A(73), tert-Butyl 2-{4-[2-(2-cyclopentyl-4,6-dioxotetrahydro-2H-pyran-2-yl)ethyl]-2-ethyl-5-methoxyphenoxy}ethyl(methyl)carbamate], the inhibition at 50 µM is 19%.
